Experimental data reported in patent US10688099B2, “Methods for modulating the amount of RNA transcripts” (PTC Therapeutics, Inc., priority 2013, dated 2020).

Test system: human genes (total transcript abundance) in PNN 1-46 cells
Test: RNA sequencing, total transcript abundance at the gene level, Compound vs DMSO control
Assay type: cell-based
Protocol: PNN 1-46 cells derived from a Type I SMA patient were treated with Compound 702 at 500 nM for 24 hours. RNA was purified with the RNeasy Mini Kit (Qiagen) for mRNA sequencing on HiSeq 2500 (Illumina Inc., San Diego, Calif.). The quality of the total RNA was assessed using UV spectrophotometry and agarose gel electrophoresis. Template DNA molecules suitable for cluster generation were prepared from 1 ug of total RNA samples using the TruSeq RNA Sample Preparation Kit v2 (Illumina Inc., San Diego, Calif.) according to the manufacturer's instructions. The size distribution of the libraries was estimated by electrophoresis on Agilent High Sensitivity Bioanalyzer microfluidic chips. The minimum and average sizes of the amplified libraries were determined to be >200 nucleotides and 300-340 nucleotides, respectively. Libraries were quantified using the KAPA Library Quantification Kit (KK4824, Kapa Biosystems, Boston, Mass.). The libraries were pooled at equimolar concentrations and diluted prior to loading onto the flow cell of the HiSeq 2500 (Illumina Inc., San Diego, Calif.) for both clustering and sequencing. The libraries were extended and bridge-amplified to create single sequence clusters using the TruSeq Rapid PE Cluster Kit—HS (Illumina Inc., San Diego, Calif.). Amplified clusters in the flow cell were then sequenced with 50-bp paired-end reads using the TruSeq Rapid SBS Kit—HS (Illumina Inc., San Diego, Calif.) in rapid run mode. Real time image analysis and base calling were performed on the HiSeq 2500 instrument using the HiSeq Sequencing Control Software (HCS). […]
In order to estimate gene expression levels, paired-end RNAseq reads were subsequently mapped to RefSeq human transcripts (release 60) and the human genome (hg19) by using the short read aligner Bowtie2 (Langmead et al., 2012. Nature methods 9:357). The number of mapped reads for all transcript variants of a gene (counts) were combined into a single value and normalized denoted as rpkms (number of mapped reads per kilobase transcript per million sequenced reads, (Mortazavi et al., 2008. Nature methods 5:621)). The splice-site analysis was performed by mapping the paired-end RNASeq reads to RefSeq human transcripts using the alignment software GSNAP with default parameters and the option ‘sam-multiple-primaries’ in order to account for reads that were mapped multiple times to different splice variants. The number of reads spanning splice-sites was determined by applying the samtools mpileup software with default parameters for each transcript. Reads having an alignment start or end exactly on the splice-site were excluded from the analysis (Wu et al., 2005, Bioinformatics 21:1859; Wu et al., 2010, Bioinformatics 26:873; Li et al., 2009, Bioinformatics 25:2078). […]

SMILES: CCN1CCC(c2cc(C)c3nc(-c4cc5c(C)nc(C)cn5n4)cc(=O)n3c2)CC1 [Compound 702]
- genes up- or downregulated, respectively, at threshold |Log2FC| 1 (500 nM vs DMSO control, 11,714 human genes with rpkm >1, FIG. 2B): six
- change in total mRNA abundance of SMN2 (500 nM vs DMSO control, PNN 1-46, 24 hours, FIG. 2A): no change
- Log2FC of total transcript expression of POLN (DNA polymerase nu) (500 nM vs DMSO control, only changed gene among the gene families of FIG. 3): > 1
- deregulation in gene families involved in DNA or RNA metabolism or cell survival (500 nM, 24 hours, PNN 1-46, FIG. 3): No deregulation
